Data reported in a melting point compilation (Tetko et al.).

SMILES	melting point [°C]
Cc1nnc(CO)o1	129 to 131
O=S(=O)(Cl)c1cnc2ccsc2c1	129 to 131
NS(=O)(=O)CCCN1C(=O)c2ccccc2C1=O	173 to 175
CCOc1cc(CC#N)ccc1OCC(F)(F)F	40 to 42
NNc1nc2ccccc2[nH]1	80 to 82
O=C(CCl)NCCOc1ccc2c(c1)OCO2	75 to 77
N#Cc1ccc(C=CC(=O)O)cc1	250 to 252
NC1CCN(c2c(F)cccc2F)C1=O (stereo not drawn)	62 to 64
CCOC(=O)C1CCC(=O)NC1 (stereo not drawn)	66 to 68
CCOC(=O)CN1C(=O)CNC1=O	109 to 111
CCC(c1ccc(Br)cc1)N1CCNCC1 (stereo not drawn)	65 to 67
Sc1nnc(-c2ccccc2)s1	199 to 201
CCOC(=O)c1ncon1	31 to 33
Cc1nn(-c2ccc(F)cc2)cc1C=O	91 to 93
Cc1nnc2c(Cl)nccn12	212 to 214
NCc1cc(OCC(F)F)ccn1	71 to 73
COc1ccc2c(=O)[nH]cnc2c1	251 to 253
O=C(O)CNC(=O)NC1CCCCC1	162 to 164
Clc1ccc(-c2nc3ccccc3[nH]2)cn1	198 to 200
O=C1CC(Cc2ccc(F)cc2)C(=O)N1 (stereo not drawn)	107 to 109
NNC(=O)Cc1ccc(Cl)cc1	165 to 167
COCCc1ccc(OCCCC(=O)O)cc1	47 to 49
CC1CCC(C(C)C)C(OC(=O)CCl)C1 (stereo not drawn)	65 to 66
CCc1ccc(-c2csc(N)n2)cc1	120 to 122
N#Cc1c(F)c(N)c(F)c(F)c1C#N	159 to 161
NC(=O)CCn1ccnc1	137 to 139

SMILES	melting point [°C]
O=C(Nc1cccc(Cl)c1)c1ccc(Cl)nc1	177 to 179
N#Cc1cnc(N)cn1	186 to 188
CC(C)(C)OC(=O)N1CCC(CC#N)CC1	72 to 74
O=C1CC(C2CC2)CN1 (stereo not drawn)	99 to 101
CC(Cl)C(=O)NC(C)c1ccc(Cl)cc1 (stereo not drawn)	127 to 129
COC(=O)N(C)c1ccc([N+](=O)[O-])cc1	108 to 110
N#Cc1ccc(-n2cnc3ccccc32)cc1	135 to 137
O=C(CCl)NCc1ccc(Cl)cc1	107 to 109
Sc1nnc(-c2ccco2)n1-c1ccccc1	121 to 123
Nc1cc(C2CCCO2)no1 (stereo not drawn)	68 to 70
OCc1nnc(-c2ccccc2)o1	129 to 131
CC1=CC(=C2Nc3cc(F)ccc3N2C(C)C)C=CC1=N	136 to 138
CC(C)(C)n1ncc2c(=O)[nH]cnc21	226 to 228
O=C(O)CCNS(=O)(=O)c1cccs1	143 to 145
CC1CCN(S(=O)(=O)N2CCNCC2)CC1	61 to 63
COC(=O)c1noc(C(=O)OC)c1O	157 to 161
O=Cc1c[nH]c2cc(Cl)ccc12	209 to 211
CN(C)S(=O)(=O)c1ccc2[nH]c(=O)oc2c1	202 to 204
CNCc1ccc(O)cc1	103 to 105
OCC#Cc1ccc(Cl)cc1	76 to 78
Nc1nnc(-c2ccc3c(c2)OCCO3)o1	247 to 249
O=C(CCl)Nc1ccnn1Cc1ccccc1	99 to 101
CC(C)c1ccc(-c2ncc(CSc3nnc(N)[nH]3)s2)cc1	168 to 170
COC(=O)c1n[nH]c(=O)c2noc(C3CC3)c12	234 to 236
Nc1cnncc1Cl	79 to 81

The remaining lines, values ahead:

melting point [°C]	SMILES
159 to 161	CN(CCCC(=O)O)C1=NS(=O)(=O)c2ccccc21
229 to 231	O=C(O)CCc1nc2ccccc2[nH]1
173 to 175	O=C(O)CC1=NN(c2ncc(C(F)(F)F)cc2Cl)C(=O)C1
132 to 134	Cc1cc(C)cc(C2(C(=O)O)CCC2)c1
189 to 191	NC(=S)C1(NC(=O)c2ccccc2)CCCCC1
95 to 97	CCC(C)NC(=O)c1cccc(CN)c1 (stereo not drawn)
79 to 81	COC(=O)c1ccc(C=O)o1
144 to 146	CC(C)n1ncc2ccc(N)cc21
66 to 68	COc1ccc(C(=O)C(C)Br)c(OC)c1 (stereo not drawn)
202 to 204	Cn1c(=O)n(CC(=O)O)c2ccccc21
215 to 217	Cc1ccc(NS(=O)(=O)c2ccc(NN)c([N+](=O)[O-])c2)c(C)c1
74 to 76	O=S1(=O)CCCN1c1cccc(Br)c1
249 to 251	O=C(O)c1cccnc1-n1cnc2ccccc21
175 to 177	CC1(c2ccc(F)c(F)c2)NC(=O)NC1=O (stereo not drawn)
147 to 149	O=C(O)c1cccc(CSc2cc(Cl)cc(Cl)c2)c1
209 to 211	O=C(O)c1cc(C2CC2)nc2c1cnn2Cc1ccccc1
78 to 80	O=C(c1cnc(Cl)c(Cl)c1)N1CCOCC1
144 to 146	CC(CS(=O)(=O)c1ccc(Br)cc1)C(=O)O (stereo not drawn)
78 to 80	COC(=O)c1cc(S(=O)(=O)Cl)cn1C
261 to 263	CCOC(=O)c1nc2ccc(Br)cc2c(=O)[nH]1
69 to 71	Cc1cc(SC(C)(C)C)ccc1N
159 to 161	Nc1ccc(Cl)c(C(=O)NC2CCCCC2)c1
179 to 181	Cc1noc2ncc(N)cc12
100 to 102	CCOC(=O)COc1ccccc1C(=O)O
228 to 230	O=C(O)c1ccc(Sc2ccccc2)c([N+](=O)[O-])c1
150 to 152	CN1CCC(CC(=O)O)CC1

melting point [°C]	SMILES
178 to 180	CCCOc1ccc2c(c1)OCC(C(=O)O)=C2
190 to 192	O=C(O)C(CS(=O)(=O)c1ccccc1)N1CCOCC1 (stereo not drawn)
179 to 181	Cc1c(C(=O)O)nnn1C1CCN(C(=O)OC(C)(C)C)CC1
117 to 119	COc1cc(C(N)=S)ccn1
118 to 120	Cc1ccc(C=CC(=O)O)o1
155 to 157	CN(C)S(=O)(=O)c1cccc(NC(=S)NN)c1
73 to 75	CC(=O)C(Cc1ccccc1)NC(=O)CCl (stereo not drawn)
150 to 152	CS(=O)(=O)c1ccc(OCCCC(=O)O)cc1
365 to 367	O=C(O)c1ccc2c(=O)n(-c3cccc(Cl)c3)c(=O)[nH]c2c1
99 to 101	COc1ccc(N)cc1OCCO
174 to 176	Cc1ccc(C23CC4CC(CC(C(=O)O)(C4)C2)C3)cc1
191 to 193	Cc1nc(-c2cccc(Cl)c2)sc1C(=O)O
128 to 130	O=C(CCl)NCc1ccc(C(=O)N2CCCC2)cc1
156 to 158	Cc1ccnc(-n2cc(S(N)(=O)=O)cn2)c1
229 to 231	COc1cc(NC(C)=O)c(C(=O)O)cc1OC
95 to 97	COc1cc2ncn(CCC(=O)O)c(=O)c2cc1OC
80 to 84	Cc1ccc(N)cc1S(=O)(=O)N(C)C
116 to 118	CCOC(=O)C(=O)c1nc2ccccc2n1C
142 to 144	COCCNS(=O)(=O)c1ccc(Cl)c(C(=O)O)c1
127 to 129	O=C(O)C1CCN(C(=O)c2ccco2)CC1
37 to 39	CC(C)Cc1ccc(C(=O)CBr)cc1
106 to 108	COc1cc(CCl)ccc1S(C)(=O)=O
162 to 164	N#CC1(C(=O)O)CCOCC1
92 to 102	O=C(O)CCSc1ccccc1Cl
111 to 113	CCC(NC(=O)OC(C)(C)C)c1ccccc1O (stereo not drawn)
147 to 149	Cc1csc(N2CCCC(C(=O)O)C2)n1 (stereo not drawn)
